Reference: patent US11952365B2, “Anti-viral compounds” (Aligos Therapeutics, Inc., priority 2020, dated 2024)
Where two headings read alike, the source gives them in different places.

Assays:
HRV3C = HRV3C (Human rhinovirus 14, UniProt P03303); test: HRV3C protease assay (duplex, SAMDI-MS); type: biochemical, HRV; conditions: HRV3C, 30 mins preincubation, read-out: HRV IC50
Outline: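 Duplex format with 3CLpro; 30 min enzyme–compound preincubation, 30 min reaction with two peptide substrates, ambient temp. Stop: 0.5% formic acid, neutralized with 1% NaHCO3 (finals). Readout SAMDI-MS, product AUC over internal standard AUC; four-parameter IC50.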

[1] = system: human beta-coronavirus OC43; test: microbe, parasite or virus in culture; type: cell-based; conditions: OC43 in HeLa cells, 6 days at 33° C., class symbols; read-out: EC50
human cathepsin L = biological target: T1, human cathepsin L (Homo sapiens, UniProt P07711); test: cathepsin L assay; type: biochemical; conditions: 10 pM human cathepsin L, Z-FR-AMC 2 μM, class symbols
T1 construct: purchased R&D Systems
T1 sequence (P07711 114-333): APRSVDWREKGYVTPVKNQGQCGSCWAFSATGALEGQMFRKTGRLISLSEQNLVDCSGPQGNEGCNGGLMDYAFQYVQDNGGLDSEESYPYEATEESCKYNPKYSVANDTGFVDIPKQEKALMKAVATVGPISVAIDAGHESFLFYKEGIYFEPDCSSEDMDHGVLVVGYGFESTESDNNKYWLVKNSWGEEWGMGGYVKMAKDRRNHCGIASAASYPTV
Outline: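 Human cathepsin L at 10 pM was preincubated 30 min with compound, then reaction started with Z-FR-AMC (2 μM final). Fluorescence (355/460 nm) read every 2 min for 30 min; IC50 from four-parameter curve fit.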

3CLpro [2] = biological target: T2, 3CLpro (Severe acute respiratory syndrome coronavirus 2, UniProt P0DTD1); test: SARS-CoV-2 3CLpro protease assay (duplex, SAMDI-MS); type: biochemical; design: For the duplex assay, 3CLpro and HRV3C was added; conditions: 3CLpro, 30 mins preincubation, class symbols; read-out: SARS-Cov-2 IC50
HeLa cells = test: Cytotoxicity plates without OC43 virus (cell-titer-glo); type: cell-based, human; conditions: class symbols
Outline: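 HeLa cells seeded overnight, then treated with serially diluted compounds in 2% FBS EMEM, uninfected, in parallel with the OC43 antiviral plates. Incubated 6 days at 33 °C; viability read by CellTiter-Glo luminescence.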

Vero E6-eGFP cells = conditions: read-out: VeroE6 + CP (CC50); Vero E6-eGFP cells with CP-100356, absence of virus, MTS; numeric bounds
Huh7 cells = conditions: read-out: Huh-7 (CC50), MTS, numeric bounds
[3] = system: SARS-CoV-2-GHB-03021/2020; test: SARS-CoV-2 Infection Model in Huh7 Cells; type: cell-based; conditions: SARS-CoV-2, day 4 p.i., MTS, class symbols, read-out: Huh-7 (EC50)
SARS-CoV-2 = conditions: cited from earlier work
3CLpro [4] = biological target: T2, 3CLpro; conditions: cited from earlier work
[5] = system: SARS-CoV-2-GHB-03021/2020; test: microbe, parasite or virus in culture; type: cell-based; conditions: read-out: VeroE6 + CP (EC50)

HRV3C, sequence (P03303 1538-1719): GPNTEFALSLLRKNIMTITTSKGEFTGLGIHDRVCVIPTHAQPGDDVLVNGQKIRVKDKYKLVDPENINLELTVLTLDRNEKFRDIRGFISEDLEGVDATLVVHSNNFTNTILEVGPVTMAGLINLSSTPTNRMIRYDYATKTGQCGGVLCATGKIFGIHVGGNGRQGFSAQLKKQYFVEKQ

Compound	IC50 (HRV3C; bound) [µM]	EC50 [1] [µM]	IC50 (human cathepsin L) [µM]	IC50 (3CLpro [2]) [µM]	CC50 (HeLa cells) [µM]	CC50 (Vero E6-eGFP cells) [µM]	CC50 (Huh7 cells) [µM]	EC50 [3] [µM]	inhibition of SARS-CoV-2 (SARS-CoV-2; in VeroE6, A549-ACE2 and/or HeLa-ACE2)	antiviral effect (SARS-CoV-2; when TMPRSS2 was expressed in A549-ACE2)	inhibitory effect on the 3CLpro (3CLpro [4])	IC50 (HRV3C; class symbols) [µM]	EC50 [5] [µM]
COc1cccc2[nH]c(C(=O)N3Cc4ccccc4[C@H]3C(=O)N[C@@H](C[C@@H]3CCCNC3=O)C(=O)CO)cc12 [Compound 73_1]	> 10	0.1 to 1	≥ 10	0.02 to 0.2	> 10								
COc1cccc2[nH]c(C(=O)N3Cc4ccccc4[C@@H]3C(=O)N[C@@H](C[C@@H]3CCCNC3=O)C(=O)CO)cc12 [Compound 73_2]	> 10	10 to 100	≥ 10	2 to 20	> 10								
O=C1NCC[C@H]1C[C@H](NC(=O)[C@@H]1[C@H]2CCC[C@H]2CN1C(=O)c1cc2c([nH]1)C1CCC2C1)C(=O)CO (stereo partly drawn) [Compound 157, (1S,3aR,6aS)-2-{3-azatricyclo[5.2.1.0^{2,6}]deca-2(6),4-diene-4-carbonyl}-N-[(2S)-4-hydroxy-3-oxo-1-[(3S)-2-oxopyrrolidin-3-yl]butan-2-yl]-hexahydro-1H-cyclopenta[c]pyrrole-1-carboxamide]		0.1 to 1	≥ 10	0.02 to 0.2	> 10	> 50	> 50	1 to 10					
CN1CCN(C(=O)N[C@@H](Cc2ccccc2)C(=O)N[C@H](/C=C/S(=O)(=O)c2ccccc2)CCc2ccccc2)CC1 [Compound K117777]									potent inhibition	abolished	lacks an inhibitory effect		
N-benzyl-3-[[(2S)-1-(1H-indole-2-carbonyl)pyrrolidin-2-yl]formamido]-2-oxo-4-[(3S)-2-oxopyrrolidin-3-yl]butanamide [Compound 3]		10 to 100		20 to 100	> 10	> 100						2 to 20	> 100
